# Results taken from US6537783B1, “Prefunctionalized nucleotide and process for amplifying a sequence using a prefunctionalized nucleotide” (Bio Merieux, priority 1996, dated 2003).
# Legend:
# [1] = tested on: Mycobacterium tuberculosis 16S RNA; experiment: Incorporation yield of the nucleotide in the TMA amplification products (HPLC of digested amplicons; fluorescence for fluorescein-UTP); format: biochemical; settings: 10^6 copies target, total 4 mM
# Description: The incorporation of the prefunctionalized nucleotides 27a, 27b and 32, and, by way of comparison, Boerhinger's labeled nucleotide ref. 1 427 857, into the products of the TMA amplification reaction is tested using Gen-Probe amplified™ MTD2 (amplified Mycobacterium tuberculosis direct test) kits. This reaction amplifies a 136-base fragment of the mycobacterial 16S RNA. It uses four enzymic activities (DNA-dependent RNA polymerase, DNA-dependent DNA polymerase, RNA-dependent DNA polymerase and ribonuclease H) and two enzymes, T7 RNA polymerase and AMV reverse transcriptase. By means of recurrent reactions involving steps of transcription, reverse transcription and digestion of the RNA contained in the DNA:RNA double strands, which steps resemble an RNA virus replication cycle, this reaction enables a nucleic acid sequence which is recognized by two primers (a simple primer and a primer containing the T7 RNA polymerase promoter) to be amplified specifically. The amplification factor is very substantial ([…]) and the sensitivity is very good (from 1 to 10 copies). 90% of the resulting products consist of single-stranded RNAs and 10% consist of double-stranded DNAs.
# Amplification reactions are carried out using 10^6 copies of Mycobacterium tuberculosis 16S RNA. This target RNA is previously obtained and quantified by means of the following method: the 16S RNA gene is cloned into a plasmid under the control of a promoter. The 16S RNA is then obtained by in vitro transcription. This RNA is purified by extraction with phenol/chloroform and filtration through microcon 30™ (Amicon). It is assayed by its absorption at 260 nm.
# The standard TMA reactions contain 4 mM of each of the natural rNTPs (ATP, CTP, GTP and UTP). For the purpose of incorporating the prefunctionalized nucleotides into the amplification products, the reaction is performed while including one of these modified nucleotides in the reaction buffer. The reaction is studied in the presence of different ratios between the concentrations of the modified nucleotide and the natural nucleotide, while at the same time ensuring that the total concentration of each nucleotide of the same series, whether modified or natural, is 4 mM. The ratios studied are 0%, 10%, 30%, 50% and 70% (except in the case of the fluorescein-UTP, which it was not possible to test at 70%). A negative control is carried out, with this negative control consisting of a reaction which comprises all the reagents, including the highest ratio of modified nucleotides employed (70 or 50%), apart from the enzymes (which are replaced by the buffer used for redissolving the lyophilized enzymes).
# The ratio between the incorporated prefunctionalized nucleotide and the analogous natural nucleotide is determined in order to assess the prefunctionalization of the amplicons obtained in the presence of the prefunctionalized nucleotides 27a (CTP-(N4)-C6O2—NH2) and 27b (CTP-(N4)-C4—NH2) and, by way of comparison, in the presence of the labeled nucleotide fluorescein-12-UTP (Boerhinger, ref. 1 427 857).
# The amplification products obtained on carrying out Example 22 are separated from the nucleotides which are in excess in the reaction by means of filtration through Microcon 30™ (from Amicon) and dissolved in 50 μl of water. In the case of the amplification in the presence of fluorescein-12-UTP, the purification is carried out on sephadex G50 (the fluorescein is absorbed on Microcon).
# The absorption of the amplification products at 260 nm is then determined (the control without enzyme should have a very low concentration).
# In the case of the amplification reactions which include the prefunctionalized nucleotides (and their controls), a step of digesting the nucleic acids down to the nucleoside stage is then carried out:
# 5 10^14 amplification product copies (approximately 35 μg) are diluted in a final volume of 86 μl of water (in the case of the control without enzyme, a volume is used which is equal to the largest sample […] volume). […]
# [2] = tested on: Mycobacterium tuberculosis 16S RNA; experiment: Impact of incorporation of prefunctionalized nucleotides on TMA sensitivity (ELOSA, electrophoresis, Northern blotting); format: biochemical; settings: for sensitivity of the TMA reaction: 10,000 to 10 target copies, ratios 100% to 0%, at a determinable concentration of prefunctionalized nucleotide
# Excerpt: In the abovementioned FIGS. 4 and 5, the number of copies of the target per reaction are given on the x axis and the number of amplicons obtained per microliter of reaction (final reaction volume=100 microliters) are given on the y axis. Specific symbols, for example ▪, □, ▴, ◯, ●, and a percentage, are assigned to the curves in FIGS. 4 and 5. This percentage corresponds to the percentage of the prefunctionalized nucleotide(s) as compared with the natural nucleotides in the TMA amplification reaction. FIGS. 4 and 5 show, respectively, the results of the semiquantification, by means of the ELOSA technique (described in Patent Application PCT WO 92/19812), of the number of amplicons produced from a target range of Mycobacterium tuberculosis 16S RNA in the presence of different ratios of 27a and 27b nucleotides as compared with their respective natural nucleotides.
# In order to study the sensitivity of TMA which includes incorporation of prefunctionalized nucleotides, the TMA was performed using decreasing quantities of the target (Mycobacterium tuberculosis 16S RNA, described in Example 22) (10,000, 1000, 100, 10 and 0 copies) in the presence of different ratios between the prefunctionalized nucleotide and its natural analog (100%, 70%, 50%, 30%, 10% and 0%). The same prefunctionalized nucleotides are tested, i.e. 27a (CTP-(N4)-C6O2—NH2) and 27b (CTP-(N4)-C4—NH2).
# The reaction products are studied, inter alia, by the method described in Example 22.
# The reaction products are also analyzed in a semi-quantitative manner by means of ELOSA (PCT WO 92/19812) and comparison of the intensity of the signals with those of standard ranges.
# The reactions which are performed in the presence of (a) prefunctionalized nucleotide(s) are analyzed by electrophoresis and staining, Northern blotting and ELOSA.
# [3] = [Prefunctionalized nucl.]/[natural nucl.] in reaction 30%
# [4] = [Prefunctionalized nucl.]/[natural nucl.] in reaction 50%
# [5] = [Prefunctionalized nucl.]/[natural nucl.] in reaction 70%
# [6] = [Prefunctionalized nucl.]/[natural nucl.] in reaction 10%
Substance,"incorporation yield: incorporated modified nucleotide / natural nucleotide in TMA amplification products [1, 3]","incorporation yield: incorporated modified nucleotide / natural nucleotide in TMA amplification products [1, 4]","incorporation yield: incorporated modified nucleotide / natural nucleotide in TMA amplification products [1, 5]",sensitivity of the TMA reaction [2],"ability to replace the natural nucleotide in TMA ([2]; FIG. 5, ELOSA)","incorporation yield: incorporated modified nucleotide / natural nucleotide in TMA amplification products [1, 6]"
CTP-(N4)-C4—NH2 [nucleotide 27b],1/48,1/15,1/6,not significantly affected,able to replace the natural nucleotide,–
CTP-(N4)-C6O2—NH2 [nucleotide 27a],1/9,1/5,1/3,not significantly affected,–,1/33
fluorescein-12-UTP [reference compound],1/45,1/30,–,–,–,1/200
